From ChEMBL document CHEMBL1132015, “Selective inactivation of protein tyrosine phosphatase PTP1B by sulfone analogue of naphthoquinone” (Bioorg Med Chem Lett, 1999)

Assay: Inhibitory constant was determined against Protein tyrosine phosphatase (PTP) using the Kitz and Wilson method

- Ki: 3.5 µM
SMILES: O=C1C(CCl)=CS(=O)(=O)c2ccccc21
